This note sets out measurements from patent US8399378B2, “Use of neonicotinoids in pest control” (Syngenta Crop Protection LLC, priority 1998, dated 2013).

A value given as a limit tells only on which side of the number the result lay.

What all share (type): in vivo
Assay [1] relates to Anthonomus grandis. Description: Spray test on young cotton plants, action against Anthonomus grandis adults. The settings on record: spray 100, 50, 10, 5, 1 ppm, evaluation 3 to 10 days. The text has this: (§1) Young transgenic cotton plants which express the δ-endotoxin CryIIIA are sprayed with an aqueous emulsion spray mixture comprising 100, 50, 10, 5, 1 ppm of imidacloprid respectively. After the spray coating has dried on, the cotton plants are populated with 10 adult Anthonomus grandis, 10 Spodoptera littoralis larvae or 10 Heliothis virescens larvae respectively and introduced into a plastic container. Evaluation takes place 3 to 10 days later.
(§2) Young transgenic cotton plants which express the δ-endotoxin CryIIIA are sprayed with an aqueous emulsion spray mixture comprising 100, 50, 10, 5, 1 ppm of thiamethoxam respectively. After the spray coating has dried on, the cotton plants are populated with 10 adult Anthonomus grandis, 10 Spodoptera littoralis larvae or 10 Heliothis virescens larvae respectively and introduced into a plastic container. Evaluation takes place 3 to 10 days later.
(§3) Young transgenic cotton plants which express the δ-endotoxin CryIIIA are sprayed with an aqueous emulsion spray mixture comprising 100, 50, 10, 5, 1 ppm of Ti-435 respectively. After the spray coating has dried on, the cotton plants are populated with 10 adult Anthonomus grandis, 10 Spodoptera littoralis larvae or 10 Heliothis virescens larvae respectively and introduced into a plastic container. Evaluation takes place 3 to 10 days later.
(§4) Young transgenic cotton plants which express the δ-endotoxin CryIa(c) are sprayed with an aqueous emulsion spray mixture comprising 100, 50, 10, 5, 1 ppm of Ti-435 respectively. After the spray coating has dried on, the cotton plants are populated with 10 adult Anthonomus grandis, 10 Spodoptera littoralis larvae or 10 Heliothis virescens larvae respectively and introduced into a plastic container. Evaluation takes place 3 to 10 days later.
(§5) Young transgenic cotton plants which express the δ-endotoxin CryIa(c) are sprayed with an aqueous emulsion spray mixture comprising 100, 50, 10, 5, 1 ppm of thiamethoxam respectively. After the spray coating has dried on, the cotton plants are populated with 10 adult Anthonomus grandis, 10 Spodoptera littoralis larvae or 10 Heliothis virescens larvae respectively and introduced into a plastic container. Evaluation takes place 3 to 10 days later.
(§6) Young transgenic cotton plants which express the δ-endotoxin CryIa(c) are sprayed with an aqueous emulsion spray mixture comprising 100, 50, 10, 5, 1 ppm of imidacloprid respectively. After the spray coating has dried on, the cotton plants are populated with 10 adult Anthonomus grandis, 10 Spodoptera littoralis larvae or 10 Heliothis virescens larvae respectively and introduced into a plastic container. Evaluation takes place 3 to 10 days later.

For assay [2], the system named is Diabrotica balteata. Description: Maize seedling spray test, action against Diabrotica balteata. The settings on record: 6 days. As to the method: A plot (a) planted with maize seedlings cv. KnockOut® and an adjacent plot (b) of the same size which is planted with conventional maize are sprayed with an aqueous emulsion of a spray mixture comprising 400 ppm thiamethoxam. Immediately afterwards, plot (b) is treated with an emulsion spray mixture comprising 400 ppm of the endotoxin expressed by KnockOut®. After the spray coating has dried on, the seedlings are populated with 10 Diabrotica balteata larvae in the second stage and transferred to a plastic container. The test is evaluated 6 days later. The percentage reduction in population (% action) is determined by comparing the number of dead pests on the plants of plot (a) with that on the plants of plot (b).

In assay [3] the test system is Spodoptera littoralis. Nature of the assay: Spray test on young cotton plants, action against Spodoptera littoralis larvae.
From the text: as §1, §2, §3, §4, §5, §6

For assay [4], the system named is Heliothis virescens. Description: Spray test on young cotton plants, action against Heliothis virescens larvae. The settings on record: spray 100, 50, 10, 5, 1 ppm, evaluation 3 to 10 days.
From the text: as §1, §2
Young transgenic cotton plants which express the δ-endotoxin CryIIIA are sprayed with an aqueous emulsion spray mixture comprising 100, 50, 10, 5, 1 ppm of Ti-435 respectively. After the spray coating has dried on, the cotton plants are populated with 10 adult Anthonomus grandis, 10 Spodoptera littoralis larvae or 10 Heliothis virescens larvae respectively and introduced into a plastic container. Evaluation takes place 3 to 10 days later. […]

Where [5] appears, read: transgenic cotton expressing δ-endotoxin CryIIIA, compared with non-transgenic plant.
Setting [6] is: transgenic cotton expressing δ-endotoxin CryIa(c).

For the compound `CN1COCN(Cc2cnc(Cl)s2)/C1=N\[N+](=O)[O-]` [thiamethoxam, 5-(2-Chlorthiazol-5-ylmethyl)-3-methyl-4-nitroimino-perhydro-1,3,5-oxadiazin], the “control of the tested insects (percentage reduction in population or feeding damage, % action)” value in assay [1] (setting [5]) is on record as “superior”; in assay [1] (setting [6]), “superior”; in assay [3] (non-transgenic cotton treated with compound and conventional CryIIIA-toxin, each 100, 50, 10, 5, 1 ppm, comparison arm for CryIa(c) cotton), “insufficient”; in assay [3] (transgenic cotton expressing δ-endotoxin CryIa(c), spray 100, 50, 10, 5, 1 ppm, evaluation 3 to 10 days), “superior”; in assay [4] (setting [5]) it was “superior”; in assay [4] (setting [6]), “superior”. Moreover, the “control (percentage reduction in population, % action)” value in assay [2] (plot (a) maize seedlings cv. KnockOut, spray 400 ppm, larvae in the second stage) is on record as “Improved control”. Also, the control level in assay [2] (plot (b) conventional maize, 400 ppm compound, then 400 ppm of the endotoxin expressed by KnockOut) was not above 60%.
